Data set [1] concerns the target Kappa-type opioid receptor (Homo sapiens) (UniProt P41145). Briefly: KAPPA(KOP)_HU Eurofins SafetyScreen44 (BI). As to conditions: Compound concentration 10.0 uM; call rule not given here.
Data set [2] deals with Voltage-gated K+ channel Kv1 (Rattus norvegicus). Briefly: K+/VOLT/RA Eurofins SafetyScreen44 (BI). Conditions: rat brain, probe [125I]a-dendrotoxin, read-out: % Ctrl.
In data set [3] the target is Alpha-2C adrenergic receptor (Homo sapiens) (UniProt P18825). As to conditions: Compound concentration 10.0 uM.
Sequence of Alpha-2C adrenergic receptor (Homo sapiens) (P18825 whole entry): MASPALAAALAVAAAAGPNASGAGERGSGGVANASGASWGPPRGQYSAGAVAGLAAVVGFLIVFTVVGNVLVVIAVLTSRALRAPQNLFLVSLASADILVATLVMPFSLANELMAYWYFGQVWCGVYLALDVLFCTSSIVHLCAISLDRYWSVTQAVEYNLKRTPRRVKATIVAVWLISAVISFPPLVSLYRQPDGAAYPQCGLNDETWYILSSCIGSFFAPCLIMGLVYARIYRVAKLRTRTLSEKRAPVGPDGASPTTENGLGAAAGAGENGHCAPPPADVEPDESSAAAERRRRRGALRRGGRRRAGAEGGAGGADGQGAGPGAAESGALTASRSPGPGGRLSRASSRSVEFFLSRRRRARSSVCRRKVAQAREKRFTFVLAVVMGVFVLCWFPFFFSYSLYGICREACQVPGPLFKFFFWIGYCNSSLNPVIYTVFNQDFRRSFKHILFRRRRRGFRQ
In data set [4] the target is Histamine H2 receptor (Homo sapiens) (UniProt P25021). As to conditions: Compound concentration 10.0 uM.
Sequence of Histamine H2 receptor (Homo sapiens) (P25021 whole entry): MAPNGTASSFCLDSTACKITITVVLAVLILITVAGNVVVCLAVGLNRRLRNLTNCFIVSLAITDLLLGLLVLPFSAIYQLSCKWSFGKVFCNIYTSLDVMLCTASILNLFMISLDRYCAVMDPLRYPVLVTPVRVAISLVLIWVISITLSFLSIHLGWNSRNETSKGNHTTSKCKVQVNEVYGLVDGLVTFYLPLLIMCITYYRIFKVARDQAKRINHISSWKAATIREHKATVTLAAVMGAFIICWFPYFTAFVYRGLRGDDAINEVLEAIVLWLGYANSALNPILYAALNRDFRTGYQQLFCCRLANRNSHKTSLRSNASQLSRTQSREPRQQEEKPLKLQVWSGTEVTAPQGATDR
Data set [5] addresses 5-hydroxytryptamine receptor 2B (Homo sapiens) (UniProt P41595). As to conditions: Compound concentration 10.0 uM.
The target in data set [6] is D(1A) dopamine receptor (Homo sapiens) (UniProt P21728). As to conditions: Compound concentration 10.0 uM.
Sequence of D(1A) dopamine receptor (Homo sapiens) (P21728 whole entry): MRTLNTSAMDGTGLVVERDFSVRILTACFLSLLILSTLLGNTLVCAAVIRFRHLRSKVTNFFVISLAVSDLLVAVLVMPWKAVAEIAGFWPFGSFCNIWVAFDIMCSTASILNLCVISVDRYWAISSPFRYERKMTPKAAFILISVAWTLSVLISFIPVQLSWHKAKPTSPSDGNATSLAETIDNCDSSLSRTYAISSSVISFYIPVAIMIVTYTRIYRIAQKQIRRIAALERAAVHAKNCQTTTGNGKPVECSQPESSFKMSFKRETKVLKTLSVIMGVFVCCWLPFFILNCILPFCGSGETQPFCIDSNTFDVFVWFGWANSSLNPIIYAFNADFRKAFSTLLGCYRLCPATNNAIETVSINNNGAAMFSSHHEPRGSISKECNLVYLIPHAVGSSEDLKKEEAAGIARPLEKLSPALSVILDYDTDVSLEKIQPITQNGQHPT
Data set [7] concerns the target cAMP-dependent protein kinase catalytic subunit alpha (Homo sapiens) (UniProt P17612). Briefly: PRKACA Invitrogen Lab (UK) kinase screen (BI). Conditions: Compound concentration 1.0 uM.
The target of data set [8] is Serine/threonine-protein kinase Chk2 (Homo sapiens) (UniProt O96017). The experiment in a line: CHEK2 Invitrogen Lab (UK) kinase screen (BI). As to conditions: Compound concentration 1.0 uM.
The target in data set [9] is Kappa-type opioid receptor (Homo sapiens) (UniProt P41145). As to conditions: Compound concentration 10.0 uM.
Sequence of Kappa-type opioid receptor (Homo sapiens) (P41145 whole entry): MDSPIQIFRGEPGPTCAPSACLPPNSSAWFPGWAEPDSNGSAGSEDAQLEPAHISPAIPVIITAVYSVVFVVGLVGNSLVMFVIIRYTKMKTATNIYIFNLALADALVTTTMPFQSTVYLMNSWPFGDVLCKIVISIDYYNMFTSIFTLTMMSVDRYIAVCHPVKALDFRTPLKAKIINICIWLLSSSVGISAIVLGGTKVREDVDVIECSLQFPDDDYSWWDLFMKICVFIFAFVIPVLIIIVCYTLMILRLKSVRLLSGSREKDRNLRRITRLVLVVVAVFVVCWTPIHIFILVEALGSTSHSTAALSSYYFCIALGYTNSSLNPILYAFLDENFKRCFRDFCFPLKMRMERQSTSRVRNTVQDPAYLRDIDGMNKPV
The target in data set [10] is Mitogen-activated protein kinase 14 (Homo sapiens) (UniProt Q16539). Briefly: MAPK14 Invitrogen Lab (UK) kinase screen (BI). Conditions: Compound concentration 1.0 uM.
Data set [11] has as its target Serine/threonine-protein kinase Nek1 (Homo sapiens) (UniProt Q96PY6). The experiment in a line: NEK1 Invitrogen Lab (UK) kinase screen (BI). As to conditions: Compound concentration 1.0 uM.
The target of data set [12] is T1, 5-hydroxytryptamine receptor 1A (Homo sapiens) (UniProt P08908).
T1 sequence (whole entry): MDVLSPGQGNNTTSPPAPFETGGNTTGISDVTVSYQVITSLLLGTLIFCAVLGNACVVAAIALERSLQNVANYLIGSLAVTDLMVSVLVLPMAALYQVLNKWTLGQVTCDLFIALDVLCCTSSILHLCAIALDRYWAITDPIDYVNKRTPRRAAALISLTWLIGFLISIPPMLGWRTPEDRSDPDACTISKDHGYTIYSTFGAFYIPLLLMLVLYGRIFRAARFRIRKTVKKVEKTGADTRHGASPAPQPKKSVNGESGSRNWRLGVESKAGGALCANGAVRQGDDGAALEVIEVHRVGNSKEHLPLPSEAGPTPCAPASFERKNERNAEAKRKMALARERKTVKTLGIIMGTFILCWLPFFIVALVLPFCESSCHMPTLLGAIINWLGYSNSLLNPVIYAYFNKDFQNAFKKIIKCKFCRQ
As to conditions: Compound concentration 10.0 uM.

Data set [13] has as its target RAC-beta serine/threonine-protein kinase (Homo sapiens) (UniProt P31751). The experiment in a line: AKT2 Invitrogen Lab (UK) kinase screen (BI). Conditions: Compound concentration 1.0 uM.
Data set [14] deals with Alpha-1B adrenergic receptor (Homo sapiens) (UniProt P35368). As to conditions: Compound concentration 10.0 uM.
Sequence of Alpha-1B adrenergic receptor (Homo sapiens) (P35368 whole entry): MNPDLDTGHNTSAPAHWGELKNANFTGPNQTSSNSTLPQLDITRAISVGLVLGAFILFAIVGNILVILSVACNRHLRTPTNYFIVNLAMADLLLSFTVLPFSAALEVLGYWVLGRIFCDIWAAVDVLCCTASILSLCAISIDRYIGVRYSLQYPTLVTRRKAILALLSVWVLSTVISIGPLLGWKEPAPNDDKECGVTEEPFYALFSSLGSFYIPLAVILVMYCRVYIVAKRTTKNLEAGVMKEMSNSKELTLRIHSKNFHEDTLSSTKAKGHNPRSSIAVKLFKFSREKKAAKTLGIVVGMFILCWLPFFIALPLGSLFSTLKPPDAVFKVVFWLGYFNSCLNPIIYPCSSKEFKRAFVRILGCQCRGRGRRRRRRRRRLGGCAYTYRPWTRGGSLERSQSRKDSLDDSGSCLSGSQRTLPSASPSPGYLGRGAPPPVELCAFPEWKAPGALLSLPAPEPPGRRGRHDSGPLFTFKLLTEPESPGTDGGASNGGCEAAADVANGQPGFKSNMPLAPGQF
Data set [15] has as its target MAP kinase-activated protein kinase 2 (Homo sapiens) (UniProt P49137). Briefly: MAPKAPK2 Invitrogen Lab (UK) kinase screen (BI). Conditions: Compound concentration 1.0 uM.
In data set [16] the target is Histamine H1 receptor (Homo sapiens) (UniProt P35367). Conditions: Compound concentration 10.0 uM.
Sequence of Histamine H1 receptor (Homo sapiens) (P35367 whole entry): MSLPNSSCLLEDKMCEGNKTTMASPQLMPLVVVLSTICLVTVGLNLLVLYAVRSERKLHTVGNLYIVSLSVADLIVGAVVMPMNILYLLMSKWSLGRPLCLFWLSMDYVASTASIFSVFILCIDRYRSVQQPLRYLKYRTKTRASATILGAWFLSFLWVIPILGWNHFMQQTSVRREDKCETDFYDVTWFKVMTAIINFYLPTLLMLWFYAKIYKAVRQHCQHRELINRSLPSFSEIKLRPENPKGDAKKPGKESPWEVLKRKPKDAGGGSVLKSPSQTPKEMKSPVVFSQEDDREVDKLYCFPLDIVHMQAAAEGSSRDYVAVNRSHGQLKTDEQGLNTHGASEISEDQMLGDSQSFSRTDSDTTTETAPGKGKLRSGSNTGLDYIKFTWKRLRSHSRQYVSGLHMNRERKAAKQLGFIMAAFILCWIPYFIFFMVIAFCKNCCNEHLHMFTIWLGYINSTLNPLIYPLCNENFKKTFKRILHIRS
In data set [17] the target is Dual specificity mitogen-activated protein kinase kinase 6 (Homo sapiens) (UniProt P52564). The experiment in a line: MAP2K6 Invitrogen Lab (UK) kinase screen (BI). Conditions: Compound concentration 1.0 uM.
Data set [18] addresses Cyclin-dependent kinase 2/cyclin A (Homo sapiens) (UniProt P24941+P20248+P78396). The experiment in a line: CDK2/CYCLINA Invitrogen Lab (UK) kinase screen (BI). Format: protein-complex assay. As to conditions: Compound concentration 1.0 uM.
The target of data set [19] is Proto-oncogene tyrosine-protein kinase Src (Homo sapiens) (UniProt P12931). Briefly: SRC Invitrogen Lab (UK) kinase screen (BI). As to conditions: Compound concentration 1.0 uM.
Data set [20] addresses Mitogen-activated protein kinase 9 (Homo sapiens) (UniProt P45984). The experiment in a line: MAPK9 Invitrogen Lab (UK) kinase screen (BI). As to conditions: Compound concentration 1.0 uM.
Data set [21] addresses Sodium-dependent dopamine transporter (Homo sapiens) (UniProt Q01959). As to conditions: Compound concentration 10.0 uM.
Data set [22] has as its target Interleukin-1 receptor-associated kinase 4 (Homo sapiens) (UniProt Q9NWZ3). The experiment in a line: IRAK4 Invitrogen Lab (UK) kinase screen (BI). As to conditions: Compound concentration 1.0 uM.
The target in data set [23] is Sigma non-opioid intracellular receptor 1 (Homo sapiens) (UniProt Q99720). As to conditions: Compound concentration 10.0 uM.
In data set [24] the target is Mitogen-activated protein kinase 1 (Homo sapiens) (UniProt P28482). The experiment in a line: MAPK1 Invitrogen Lab (UK) kinase screen (BI). Conditions: Compound concentration 1.0 uM.
In data set [25] the target is 5-hydroxytryptamine receptor 5A (Homo sapiens) (UniProt P47898). As to conditions: Compound concentration 10.0 uM.
Sequence of 5-hydroxytryptamine receptor 5A (Homo sapiens) (P47898 whole entry): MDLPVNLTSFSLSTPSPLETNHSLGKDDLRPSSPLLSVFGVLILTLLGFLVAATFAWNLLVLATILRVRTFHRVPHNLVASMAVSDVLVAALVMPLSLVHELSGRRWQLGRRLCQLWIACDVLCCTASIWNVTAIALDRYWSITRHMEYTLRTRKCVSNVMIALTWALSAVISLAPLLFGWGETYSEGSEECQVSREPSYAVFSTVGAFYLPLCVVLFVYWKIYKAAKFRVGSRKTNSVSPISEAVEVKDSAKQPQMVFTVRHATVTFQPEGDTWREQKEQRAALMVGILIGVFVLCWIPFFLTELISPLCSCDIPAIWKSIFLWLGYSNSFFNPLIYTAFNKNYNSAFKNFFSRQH
Data set [26] has as its target 5-hydroxytryptamine receptor 1B (Rattus norvegicus) (UniProt P28564). The experiment in a line: 5HT1B/R Eurofins SafetyScreen44 (BI). Conditions: Compound concentration 10.0 uM.
The target of data set [27] is Phosphatidylinositol 4,5-bisphosphate 3-kinase catalytic subunit gamma isoform (Homo sapiens) (UniProt P48736). The experiment in a line: PIK3CG Invitrogen Lab (UK) kinase screen (BI). As to conditions: Compound concentration 1.0 uM.
The target in data set [28] is Mitogen-activated protein kinase 3 (Homo sapiens) (UniProt P27361). The experiment in a line: MAPK3 Invitrogen Lab (UK) kinase screen (BI). Conditions: Compound concentration 1.0 uM.
In data set [29] the target is BDNF/NT-3 growth factors receptor (Homo sapiens) (UniProt Q16620). Briefly: NTRK2 Invitrogen Lab (UK) kinase screen (BI). As to conditions: Compound concentration 1.0 uM.
The target in data set [30] is Platelet-derived growth factor receptor alpha (Homo sapiens) (UniProt P16234). The experiment in a line: PDGFRA Invitrogen Lab (UK) kinase screen (BI). Conditions: Compound concentration 1.0 uM.
Data set [31] addresses Rho-associated protein kinase 2 (Homo sapiens) (UniProt O75116). The experiment in a line: ROCK2 Invitrogen Lab (UK) kinase screen (BI). Conditions: Compound concentration 1.0 uM.
For data set [32], the target named is Protein kinase C alpha type (Homo sapiens) (UniProt P17252). The experiment in a line: PRKCA Invitrogen Lab (UK) kinase screen (BI). Conditions: Compound concentration 1.0 uM.
Data set [33] has as its target Glycogen synthase kinase-3 beta (Homo sapiens) (UniProt P49841). The experiment in a line: GSK3B Invitrogen Lab (UK) kinase screen (BI). As to conditions: Compound concentration 1.0 uM.
Data set [34] has as its target D(4) dopamine receptor (Homo sapiens) (UniProt P21917). Conditions: Compound concentration 10.0 uM.
For data set [35], the target named is Beta-2 adrenergic receptor (Homo sapiens) (UniProt P07550). Conditions: Compound concentration 10.0 uM.
Sequence of Beta-2 adrenergic receptor (Homo sapiens) (P07550 whole entry, looked up): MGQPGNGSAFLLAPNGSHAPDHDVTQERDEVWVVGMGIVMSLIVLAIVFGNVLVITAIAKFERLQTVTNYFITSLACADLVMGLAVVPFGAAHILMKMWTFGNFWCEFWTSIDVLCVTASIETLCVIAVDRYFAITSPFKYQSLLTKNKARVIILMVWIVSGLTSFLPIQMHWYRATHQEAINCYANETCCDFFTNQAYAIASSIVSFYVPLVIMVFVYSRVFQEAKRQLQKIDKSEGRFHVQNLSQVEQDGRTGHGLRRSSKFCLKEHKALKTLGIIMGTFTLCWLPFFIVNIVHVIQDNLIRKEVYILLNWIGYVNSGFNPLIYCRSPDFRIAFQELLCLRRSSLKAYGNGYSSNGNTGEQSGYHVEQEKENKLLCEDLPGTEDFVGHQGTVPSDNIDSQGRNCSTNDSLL
The target in data set [36] is D(1B) dopamine receptor (Homo sapiens) (UniProt P21918). Conditions: Compound concentration 10.0 uM.

Sequence of 5-hydroxytryptamine receptor 2B (Homo sapiens) (P41595 whole entry): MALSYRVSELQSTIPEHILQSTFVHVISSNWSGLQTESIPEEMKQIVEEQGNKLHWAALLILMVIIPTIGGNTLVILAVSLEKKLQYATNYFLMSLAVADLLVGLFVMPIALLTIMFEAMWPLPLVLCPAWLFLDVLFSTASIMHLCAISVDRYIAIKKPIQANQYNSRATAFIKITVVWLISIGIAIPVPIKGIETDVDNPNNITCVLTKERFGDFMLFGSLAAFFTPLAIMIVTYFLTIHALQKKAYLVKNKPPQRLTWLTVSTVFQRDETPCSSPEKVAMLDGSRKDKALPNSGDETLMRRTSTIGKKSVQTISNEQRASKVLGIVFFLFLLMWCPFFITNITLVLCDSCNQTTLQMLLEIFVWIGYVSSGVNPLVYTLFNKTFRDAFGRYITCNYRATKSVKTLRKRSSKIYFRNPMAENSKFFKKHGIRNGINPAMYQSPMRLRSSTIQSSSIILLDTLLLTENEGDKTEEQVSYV
Sequence of Sodium-dependent dopamine transporter (Homo sapiens) (Q01959 whole entry): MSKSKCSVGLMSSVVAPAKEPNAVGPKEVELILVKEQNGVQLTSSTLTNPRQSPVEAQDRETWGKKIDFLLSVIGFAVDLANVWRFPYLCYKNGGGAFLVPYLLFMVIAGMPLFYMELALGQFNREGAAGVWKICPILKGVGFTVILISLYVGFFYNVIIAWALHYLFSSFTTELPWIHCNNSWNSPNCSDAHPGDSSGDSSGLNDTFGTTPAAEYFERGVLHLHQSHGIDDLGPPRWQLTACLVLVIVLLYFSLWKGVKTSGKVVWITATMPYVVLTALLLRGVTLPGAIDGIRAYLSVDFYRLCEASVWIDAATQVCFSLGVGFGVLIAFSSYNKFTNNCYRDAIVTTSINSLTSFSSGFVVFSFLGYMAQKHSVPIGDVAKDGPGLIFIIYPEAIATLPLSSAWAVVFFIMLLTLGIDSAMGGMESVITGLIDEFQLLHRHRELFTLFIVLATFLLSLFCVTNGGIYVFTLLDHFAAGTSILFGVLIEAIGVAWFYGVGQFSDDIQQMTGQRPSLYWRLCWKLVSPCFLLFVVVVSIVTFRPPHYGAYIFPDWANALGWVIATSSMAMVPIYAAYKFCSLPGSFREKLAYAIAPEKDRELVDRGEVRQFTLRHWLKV
Sequence of D(4) dopamine receptor (Homo sapiens) (P21917 whole entry): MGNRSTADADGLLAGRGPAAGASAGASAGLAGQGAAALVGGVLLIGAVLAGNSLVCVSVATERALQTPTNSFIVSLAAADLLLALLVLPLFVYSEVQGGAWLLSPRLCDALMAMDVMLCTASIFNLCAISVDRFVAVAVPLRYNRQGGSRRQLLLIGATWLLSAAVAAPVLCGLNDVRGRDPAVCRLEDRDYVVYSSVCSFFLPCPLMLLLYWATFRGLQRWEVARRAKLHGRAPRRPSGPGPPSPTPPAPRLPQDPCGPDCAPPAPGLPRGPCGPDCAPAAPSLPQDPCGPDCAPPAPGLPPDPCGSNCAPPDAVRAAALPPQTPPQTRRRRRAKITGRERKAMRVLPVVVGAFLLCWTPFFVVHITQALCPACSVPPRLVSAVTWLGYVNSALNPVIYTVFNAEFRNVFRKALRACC

Take `C[C@@H]1C[C@H](C)CN(c2ncc(Cl)c(Nc3ccc4c(c3)cc(OC(C)(C)C(=O)O)c(=O)n4C)n2)C1`: the residual activity in [1] is 86%.
As to `CNC(=O)COc1cc2cc(Nc3nc(N4C[C@H](C)C[C@H](C)C4)ncc3Cl)ccc2n(C)c1=O`, the activity at 10 µM in data set [2] is 105% (not active). Also, the inhibition in data set [3] is 6.5%; in [4], 13.9%; in data set [5], -5.25%; in data set [6], -4.07%; in data set [9], 33.5%; in data set [12], 27%. For the same compound, the inhibition in [14] was -0.36%; in data set [16], 6.31%; in data set [21], 12.6%; in data set [23] it was 19.9%; in data set [25] it was 0.2%; in [34], -9.6%. In addition, the inhibition in data set [35] was -8.13%; in data set [36] it was 1.96%. Moreover, the residual activity in data set [7] was 91%; in data set [8], 96%; in data set [10] it was 100%; in [11], 101%; in [13] it was 96%; in data set [15], 102%. Also, the residual activity is 84% in data set [17]; 102% in [18]; 105% in data set [19]; 110% in data set [20]; 90% in data set [22]; 106% in data set [24]. The residual activity in data set [26] is 115%; in data set [27], 95%; in data set [28], 105%; in data set [29] it was 99%; in [30], 102%; in data set [31], 100%. The residual activity in data set [32] was 113%; in data set [33], 93%.

The values above are taken from ChEMBL document CHEMBL5303763, “Data for DCP probe BI-3802” (2023).
